Experimental data reported in patent US20210186905A1, “ENHANCING T-CELL FUNCTION AND TREATING A T-CELL DYSFUNCTIONAL DISORDER WITH A COMBINATION OF AN LSD INHIBITOR AND A PD-1 BINDING ANTAGONIST” (EpiAxis Therapeutic Pty Ltd, priority 2017, published 2021).
“Also recorded” adds a separate entry of the source. Structures can show the parent of a compound that is named as a salt.

How the values were obtained:
LSD1p, CSV and ALDH1A = assay: Immunofluorescence of FFPE tissue, metastatic lesions in lung or liver of 4T1 mice; format: in vivo, mouse
Description: FIG. 3 is a photographic and graphical representation showing that dual epigenetic-immunotherapy inhibits metastatic progression in 4T1 Mouse model. A. 4T1 Treatment FFPE from each treatment group (Group A=Control, Group C: PD1 (10 mg/kg), Group D: Phenelzine (40 mg/kg), Group F: PD1+Phenelzine) and for each target organ (Lung and Liver) was processed for 3D high resolution microscopy using the BondRX. FFPE tissues were fixed and Immunofluorescence microscopy was performed probing with rabbit LSD1(S111p); mouse anti CSV and goat anti […] and visualized with a donkey anti-rabbit AF 488, anti-mouse 568 and anti-goat 633. Cover slips were mounted on glass microscope slides with ProLong Diamond Antifade reagent (Life Technologies). Protein targets were localized by confocal laser scanning microscopy. Single 0.5 μm sections were obtained using a Leica DMI8 microscope using 100× oil immersion lens running LAX software. The final image was obtained by averaging four sequential images of the same section. Digital images were analyzed using ImageJ software (ImageJ, NIH, Bethesda, Md., USA) to determine the either the Total Nuclear Fluorescent Intensity (TNFI), the Total Cytoplasmic Fluorescent Intensity (TCFI) or total Fluorescent Intensity (TFI). N=40 cells were counted. B. Graphs for both organs are presented here. Graphs represent the TNFI values for LSD1, ALDH1A and TCFI for CSV measured using ImageJ to select the nucleus minus background. Representative images for the Lung dataset are shown.
The expression of a mesenchymal, stem-like biomarker panel was examined in metastatic sites in a 4T1 mouse model treated with vehicle control (Group A), anti-PD1 antibody (10 mg/kg) (Group C), phenelzine sulfate (40 mg/kg) (Group D) or a combination of both (Group F). The present inventors examined the presence of metastatic lesions in the lung or liver and measured the immunofluorescence (IF) of formalin-fixed paraffin-embedded (FFPE) tissue examining the IF intensity of LSD1p, CSV and ALDH1A.
4T1 Treatment FFPE from each treatment group primary tumor biopsies were processed in the BondRX for IFA staining using the instrument protocol: ER2 for 20 mins at 100° C. with Epitope Retrieval Solution 2 which is a pH-9 EDTA based retrieval solution followed by probing with rabbit anti LSD1 (S111p); mouse anti CSV and goat anti ALDH1A and visualized with a donkey anti-rabbit AF 488, anti-mouse 568 and anti-goat 633 or anti rat 633. Cover slips were mounted on glass microscope slides with ProLong Diamond Antifade reagent (Life Technologies). Protein targets were localized by confocal laser scanning microscopy. Single 0.5 μm sections were obtained using a Leica DMI8 microscope using 100× oil immersion lens running LAX software. The final image was obtained by averaging four sequential images of the same section. Digital images were analysed using ImageJ software (ImageJ, NIH, Bethesda, Md., USA) to determine the either the Total Nuclear Fluorescent Intensity (TNFI), the Total Cytoplasmic Fluorescent Intensity (TCFI) or total Fluorescent Intensity (TFI).

CSV, LSD1p, SNAI1 = assay: Immunofluorescence of cancer cells from primary tumor micro-environment, mesenchymal CTC signature panel; format: in vivo, mouse; conditions: cancer cells from primary TME; % change relative to vehicle control
Description: FIG. 2 is a graphical and photographic representation showing the efficacy of dual phenelzine sulfate (phenelzine) and anti-PD1 antibody (PD1) therapy on circulating tumor cells (CTCs) and cancer stem cells (CSC) as well as tumor burden. A. Statistics of tumor volumes on day 15 post-treatment. A Mann-Whitney non-parametric t-test was used to compare control vs other groups (*p<0.02, **p<0.008). Group A=Control, Group C: PD1 (10 mg/kg), Group D: Phenelzine (40 mg/kg), Group F: PD1+Phenelzine. Illustration of the treatment protocol is also shown. […] Representative images for each dataset are shown. […] C. […] (a) Representative images for each dataset are shown. (b) Graph represents the TCFI values for CD133 TNFI for ALDH1A and TFI for ABCB5 measured using ImageJ to select the nucleus/cytoplasm minus background (n>20 individual cells, Group A=Control, Group C: PD1 (10 mg/kg), Group D: Phenelzine (40 mg/kg), Group F: PD1+Phenelzine).
FIG. 11 is a photographic and graphical representation showing triple therapy efficacy on CTC/CSC and tumor burden. […] (b) Graph represents the TCFI values for CD133 TNFI for ALDH1A and TFI for ABCB5 measured using ImageJ to select the nucleus/cytoplasm minus background (n>20 individual cells, Group A=Control, Group B: Abraxane (30 mg/kg), Group C: anti-PD1 (10 mg/kg), Group D: Phenelzine (40 mg/kg), Group E: Abraxane+PD1, Group F: PD1+Phenelzine, Group G: Abraxane+Phenelzine, Group H: Triple Therapy). […]
A total of 2×10^5 cells were injected per mouse into mammary gland in 50 μL of phosphate buffered saline (PBS). […] Tumors were measured using calipers and the tumor volumes (mm3) were calculated using the formula (length×width2)/2. ? arvested cells from primary tumors where then cytospun ? -treated with poly-1-lysine and fixed then stored in PBS for IFA Microscopy Analysis. […] Digital images were analysed using ImageJ software (ImageJ, NIH, Bethesda, Md., USA) to determine the either the Total Nuclear Fluorescent Intensity (TNFI), the Total Cytoplasmic Fluorescent Intensity (TCFI) or total Fluorescent Intensity (TFI).

Q: For NNCCc1ccccc1 (racemic) [phenelzine sulfate, (±)-2-phenylethylhydrazine], which ALDH1A expression (LSD1p, CSV and ALDH1A; liver lesions) is on record?
A: Its ALDH1A expression is “strongly inhibited”.

Q: What about the CSV expression (LSD1p, CSV and ALDH1A; liver lesions) of the same molecule?
A: Its CSV expression is “strongly inhibited”.

Q: And the “LSD1p IF intensity” value (LSD1p, CSV and ALDH1A; liver lesions)?
A: Its value is “strongly inhibited”.

Q: And the ALDH1A expression (LSD1p, CSV and ALDH1A; lung lesions)?
A: The ALDH1A expression was “strongly inhibited”.

Q: And the CSV expression (LSD1p, CSV and ALDH1A; lung lesions)?
A: The CSV expression was “strongly inhibited”.

Q: What about the “LSD1p IF intensity” value (LSD1p, CSV and ALDH1A; lung lesions) of the same molecule?
A: The value was “strongly inhibited”.

Q: And the SNAI1 expression (CSV, LSD1p, SNAI1)?
A: Its SNAI1 expression is “strong inhibition; also recorded: stronger inhibition”.

Q: What about the “expression of CSV” value (CSV, LSD1p, SNAI1) of the same molecule?
A: Its value is “strong inhibition; also recorded: stronger inhibition”.

Q: And the “nuclear expression of LSD1” value (CSV, LSD1p, SNAI1)?
A: Its value is “strong inhibition; also recorded: stronger inhibition”.
